Experimental data published in US4499082A, “α-Aminoboronic acid peptides” (E. I. Du Pont de Nemours and Company, priority 1983, dated 1985).
Read-outs that look alike come from different tables or passages of the source. One block for each compound: values may come before it.

What was measured:
chymotrypsin = chymotrypsin (Bos taurus, UniProt P00766); conditions: Matteson et al.; cited from earlier work
[1] = target: Porcine pancreatic elastase (Sus scrofa, UniProt P00772); test: Inhibition of pancreatic elastase; type: biochemical; conditions: inhibitor 5 × 10^4 nM
Experimental: Porcine pancreatic elastase (9.8 U/mg.) was obtained from commercial sources. […] Reactions were initiated by addition of 0.5 μg of elastase in 0.020 mL of 0.020M sodium acetate buffer, pH 6.0, and hydrolysis of substrate was monitored spectrophotometrically at 405 nm at 25° C. Assay results are set forth in Table 4, below, expressed as percentages of activity of control mixtures to which no inhibitor was added: […]

Bovine α-chymotrypsin = target: T1, Bovine α-chymotrypsin (Bos taurus, UniProt P00766); test: Inhibition of α-chymotrypsin; type: biochemical; conditions: inhibitor 100 nM; N.T (no detectable time dependence)
T1 construct: purchased
Experimental: Bovine α-chymotrypsin, obtained from commercial sources, was used to prepare stock solutions. […] Reactions were initiated by the addition of 0.040 μg of enzyme and increases in absorbance were monitored spectrophotometrically at 405 nm at 25°.

neutrophil elastase [2] = target: T2, neutrophil elastase (Homo sapiens, UniProt P08246); test: Inhibition of neutrophil elastase (Table 2); type: biochemical; set-up: Neutrophil elastase was prepared by the procedure described by Baugh. et al; from tissue; conditions: inhibitor 5,000 nM
T2 sequence (P08246 30-267): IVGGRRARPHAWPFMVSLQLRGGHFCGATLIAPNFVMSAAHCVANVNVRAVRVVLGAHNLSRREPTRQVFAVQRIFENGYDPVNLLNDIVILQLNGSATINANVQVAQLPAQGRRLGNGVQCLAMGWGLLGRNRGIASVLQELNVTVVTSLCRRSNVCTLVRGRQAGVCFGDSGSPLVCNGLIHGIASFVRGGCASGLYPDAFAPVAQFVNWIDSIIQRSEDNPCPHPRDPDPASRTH
Experimental: Neutrophil elastase was prepared by the procedure described by Baugh. et al., Biochemistry 15:836 […]. Enzyme assays were conducted substantially according to the procedure disclosed by Nakajima, et al., J. Biol. […] Inhibitors were evaluated by comparing enzymatic activity measured in the presence and absence of inhibitor.

[3] = plasma incubated at 4°
Experimental: The stability of inhibitory capacity provided by MeOSuc-AlaAlaPro-Boroval-OH in plasma was determined by incubating samples of plasma containing inhibitor at 4° for 24 hours, followed by assays for inhibitory capacity conducted as above.

neutrophil elastase [4] = target: T2, neutrophil elastase; test: Kinetic constants for interaction with human neutrophil elastase (Table 1); type: biochemical; set-up: Neutrophil elastase was prepared by the procedure described by Baugh. et al; from tissue
Experimental: A more extensive evaluation of the kinetic constants for interaction of human neutrophil elastase with MeOSuc-AlaAlaPro-Boroval-OH were determined by methods substantially similar to those disclosed by Schloss, et al., Biochemistry 19:2358 (1980), who describe the following equation describing reversible, tight binding inhibition: [drawing 13]
As determined herein, Ki (initial)=k2 /k1; Ki (final)=(k2 /k1)k4 /(k3 +k4); and […]; E=[Enzyme]; I=[inhibitor]; EI and EI*=[enzyme-inhibitor complexes].
Ki (initial) was determined from initial velocity studies, according to the method of Lineweaver and Burk. Substrate concentration was varied from 0.80-0.04 mM, and concentration of inhibitor (MeOSuc-AlaAlaPro-Boroval-OH) was 200 nM. Observed inhibition appeared to be competitive, since double reciprocal plots of initial velocity vs. substrate concentration intercepted the y-axis at the same point.
The data were fitted to the following equation: P=P0 +(vi -vf)/k+vf t+(vf -vi)e^-kt /k. P is the concentration of product at time t, vi is the initial velocity, vf is the final steady state velocity, k is the first order rate constant and P0 is the concentration of product at t=0. Values of Ki (initial) and Ki (final) were then determined from plots of velocity^-1 vs. concentration of inhibitor using the method described by Dixon, Biochem. J. 55:170 (1953).

neutrophil elastase [5] = target: T2, neutrophil elastase; test: Inhibition of neutrophil elastase, additional peptide inhibitors preincubated in phosphate buffer (Table 3); type: biochemical; set-up: Neutrophil elastase was prepared by the procedure described by Baugh. et al; from tissue; conditions: Conc. 1.0 × 10^-7 M
Experimental: Additional peptide inhibitors were evaluated by a procedure similar to that described above. Stock solutions of inhibitors (1.00 mM) were prepared in dimethylsulfoxide and compounds were diluted to 0.10 mM with […], pH 7.5, yielding the free boronic acid. After incubation for one hour at about 23°, inhibitors were added to assay solutions (2.00 mL) consisting of […] MeOSuc-Ala-AlaProVal-p-nitroanilide in 0.10M Hepes buffer, pH 7.5, containing 0.50M NaCl. Assays were initiated by addition of 0.50 μg neutrophil elastase. Control assays without inhibitor indicated an initial velocity of 0.0195 min^-1. The value "k" in Table 3, below, is an estimate of the first order rate constant for time-dependent inhibition, as described above for MeOSuc-AlaAlaPro-Boroval-OH (Table 1).

[6] = hamster, in vivo
Experimental: Plasma, 5 μL, containing various concentrations of inhibitor, or a dilution thereof, was incubated with 10 μL of a stock solution of 1.15×10^-5 M pancreatic elastase, in a final volume of 0.40 mL 0.10M Hepes buffer, pH 7.5, containing 0.5M NaCl at 25°. After 5 minutes incubation, 1.60 mL additional buffer and 20 μL of a 0.20M MeOSuc-AlaAlaPro-Val-pNA solution in dimethylsulfoxide was added and the increase in absorbance at 405 nm monitored. Levels of inhibitor were determined from a standard curve of % activity vs. inhibitor concentration.
FIG. 1 illustrates results of experiments in which hamsters, 50 days old, weighing 80-90 g, were administered MeOSu-AlaAlaPro-Boroval-pinacol in 1.0 mL saline at intraperitoneal dosage levels of 400, 200 and 100 mg/kg. At the indicated time intervals, blood samples (50-100 μL) were withdrawn by cardiac puncture from animals lightly anesthetized with ether, and elastase inhibitor levels determined. Normal plasma EIC is 14 μM.

α-chymotrypsin = target: T3, α-chymotrypsin (Bos taurus, UniProt P00766); conditions: competitive inhibitor; Lindquist et al.; cited from earlier work
T3 construct: purchased

[7] = test system: experimentally-induced emphysema in hamsters; conditions: intraperitoneally; cited from earlier work
neutrophil elastase [8] = target: T2, neutrophil elastase; conditions: cited from earlier work
emphysema in mice = conditions: cited from earlier work
hamsters = conditions: intratracheal administration; cited from earlier work

Sequence of Porcine pancreatic elastase (P00772 27-266): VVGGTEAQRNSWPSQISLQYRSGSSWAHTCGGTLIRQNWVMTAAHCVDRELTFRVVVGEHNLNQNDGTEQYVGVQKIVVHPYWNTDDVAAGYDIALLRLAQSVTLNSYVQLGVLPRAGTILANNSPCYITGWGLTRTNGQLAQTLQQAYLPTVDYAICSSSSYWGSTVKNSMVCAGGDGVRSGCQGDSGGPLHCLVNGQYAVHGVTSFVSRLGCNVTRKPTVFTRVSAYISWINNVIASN

Compound: CC(=O)N[C@@H](Cc1ccccc1)B(O)O [(R)-1-acetamido-2-phenylethaneboronic acid]
Ki (chymotrypsin): 4000 nM

Compound: CC(C)(C)OC(=O)N[C@@H](Cc1ccccc1)C(=O)N1CCC[C@H]1C(=O)N[C@@H](Cc1ccccc1)B1OC(C)(C)C(C)(C)O1 [Boc--Phe--Pro--Borophe--pinacol, Boc-PhePro-Borophe-pinacol]
Activity % of Control ([1]; 0.5 min): 69.1 % of Control | Activity % of Control ([1]; 4.0 min): 21 % of Control | Activity % of Control (Bovine α-chymotrypsin): 69 % of Control | % Activity (neutrophil elastase [2]; 0.5 min): 42% | % Activity (neutrophil elastase [2]; 2 min): 23% | % Activity (neutrophil elastase [2]; 4 min): 17%

Ki (neutrophil elastase [4]; initial velocity studies, Lineweaver and Burk, inhibitor 200 nM, read-out: Ki Initial): 150 nM | Ki (neutrophil elastase [4]; progressive inhibition, Dixon plot, t = 0, inhibitor 30-300 nM, read-out: Ki Initial): 91 nM | Ki (neutrophil elastase [4]; progressive inhibition, Dixon plot, t = infinity, equilibrium, read-out: Ki Final): 6.2 nM | % Initial Activity (neutrophil elastase [5]): 61% | k, first order rate constant for time-dependent inhibition (neutrophil elastase [5]): 0.27 min⁻¹
Compound: COC(=O)CCC(=O)N[C@@H](C)C(=O)N[C@@H](C)C(=O)N1CCC[C@H]1C(=O)NC(B(O)O)C(C)C (stereo partly drawn) [MeOSuc--Ala--Ala--Pro--Boroval--OH, MeOSuc-AlaAlaPro-Boroval-OH]
% Activity, Plasma + Inhibitor ([3]; t = 0 hr.): 18.5% | % Activity, Plasma + Inhibitor ([3]; t = 48 hr.): 17%

elevation of plasma EIC [6]: at least 10 fold
Compound: COC(=O)CCC(=O)N[C@@H](C)C(=O)N[C@@H](C)C(=O)N1CCC[C@H]1C(=O)NC(B1OC(C)(C)C(C)(C)O1)C(C)C (stereo partly drawn) [MeOSuc--Ala--Ala--Pro--Boroval--pinacol, MeOSuc-AlaAlaPro-Boroval-pinacol]

Compound: O=C(NCB(O)O)c1ccccc1 [N-benzoylaminomethaneboronic acid]
Ki (α-chymotrypsin): 1000 to 4000 nM

Compound: N-acetyl-L-alanyl-L-alanyl-L-prolyl-L-alanine chloromethyl ketone [Ac-Ala-Ala-Pro-AlaCH2 Cl]
block of experimentally-induced emphysema [7]: effectively block experimentally-induced emphysema

Compound: N-methoxysuccinyl-L-alanyl-L-alanyl-L-prolyl-L-valine chloromethyl ketone [MeOSuc-Ala-Ala-Pro-ValCH2 Cl]
concentration exhibiting inhibitory activity (neutrophil elastase [8]): 25 µM | effectiveness (emphysema in mice; administered more than fifteen minutes prior to intrapulmonary instillation of elastase): ineffective | treatment of emphysema (emphysema in mice; given orally): effective agent in the treatment of emphysema

Compound: N-succinyl-L-alanyl-L-alanyl-L-prolyl-L-valine chloromethyl ketone [Suc-Ala-Ala-Pro-ValCH2 Cl]
effectiveness (hamsters): effective
